In PubChem BioAssay (NCI):
Values joined by “and” are separate entries in the source; they are usually repeats but may differ in a detail not shown here. Equal entries are not always repeated.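 Assay format: 96-well plates, 48-hour exposure. Here, GI50 denotes the concentration required for 50% inhibition of growth. TGI marks complete inhibition of growth.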

Key:
Assay in all cases: NCI tumour cell line growth inhibition, 48 h
OVCAR-3 ovarian = tested on: OVCAR-3 ovarian
OVCAR-8 ovarian = tested on: OVCAR-8 ovarian
MALME-3M melanoma = tested on: MALME-3M melanoma
SR leukemia = tested on: SR leukemia
SK-MEL-2 melanoma = tested on: SK-MEL-2 melanoma
HOP-92 NSCLC = tested on: HOP-92 NSCLC
SN12C renal = tested on: SN12C renal
SNB-78 CNS = tested on: SNB-78 CNS
U251 CNS = tested on: U251 CNS
HCT-15 colon = tested on: HCT-15 colon
OVCAR-5 ovarian = tested on: OVCAR-5 ovarian
KM12 colon = tested on: KM12 colon
RXF 393 renal = tested on: RXF 393 renal
CAKI-1 renal = tested on: CAKI-1 renal
M14 melanoma = tested on: M14 melanoma
COLO 205 colon = tested on: COLO 205 colon
LXFL 529 NSCLC = tested on: LXFL 529 NSCLC
DLD-1 colon = tested on: DLD-1 colon
HCC-2998 colon = tested on: HCC-2998 colon
TK-10 renal = tested on: TK-10 renal
IGROV1 ovarian = tested on: IGROV1 ovarian
NCI-H522 lung = tested on: NCI-H522 lung
KM20L2 colon = tested on: KM20L2 colon
NCI-H23 lung = tested on: NCI-H23 lung
UO-31 renal = tested on: UO-31 renal
SK-MEL-28 melanoma = tested on: SK-MEL-28 melanoma
SF-295 CNS = tested on: SF-295 CNS
SK-OV-3 ovarian = tested on: SK-OV-3 ovarian
DMS 273 small cell lung = tested on: DMS 273 small cell lung
K-562 leukemia = tested on: K-562 leukemia
UACC-62 melanoma = tested on: UACC-62 melanoma
XF 498 CNS = tested on: XF 498 CNS
SK-MEL-5 melanoma = tested on: SK-MEL-5 melanoma
SNB-19 CNS = tested on: SNB-19 CNS
HT29 colon = tested on: HT29 colon
SW-620 colon = tested on: SW-620 colon
CCRF-CEM leukemia = tested on: CCRF-CEM leukemia
MOLT-4 leukemia = tested on: MOLT-4 leukemia
OVCAR-4 ovarian = tested on: OVCAR-4 ovarian
NCI-H226 lung = tested on: NCI-H226 lung
DMS 114 small cell lung = tested on: DMS 114 small cell lung
A549 NSCLC = tested on: A549 NSCLC
EKVX NSCLC = tested on: EKVX NSCLC
BT-549 breast = tested on: BT-549 breast
MCF7 breast = tested on: MCF7 breast
PC-3 prostate = tested on: PC-3 prostate
P388/ADR leukemia = tested on: P388/ADR leukemia
ACHN renal = tested on: ACHN renal
MDA-MB-231 breast = tested on: MDA-MB-231 breast
MDA-N = tested on: MDA-N
SF-268 CNS = tested on: SF-268 CNS
786-0 renal = tested on: 786-0 renal
A498 renal = tested on: A498 renal
HS 578T breast = tested on: HS 578T breast
T-47D breast = tested on: T-47D breast
SF-539 CNS = tested on: SF-539 CNS
MDA-MB-435 = tested on: MDA-MB-435
LOX IMVI melanoma = tested on: LOX IMVI melanoma
HOP-62 NSCLC = tested on: HOP-62 NSCLC
HL-60(TB) leukemia = tested on: HL-60(TB) leukemia
HOP-18 NSCLC = tested on: HOP-18 NSCLC
UACC-257 melanoma = tested on: UACC-257 melanoma
SNB-75 CNS = tested on: SNB-75 CNS
NCI-H460 lung = tested on: NCI-H460 lung
RPMI-8226 leukemia = tested on: RPMI-8226 leukemia
M19-MEL melanoma = tested on: M19-MEL melanoma
HCT-116 colon = tested on: HCT-116 colon

## O=C(N/C(=C\c1ccc(Br)cc1)c1nc2ccccc2[nH]1)c1ccccc1
OVCAR-3 ovarian
  TGI: 46.2 µM
OVCAR-8 ovarian
  TGI: 40 µM
MALME-3M melanoma
  TGI: 45.6 µM
SR leukemia
  TGI: 50.9 µM
SK-MEL-2 melanoma
  TGI: 30.9 µM
HOP-92 NSCLC
  TGI: 24.7 µM
SN12C renal
  TGI: 32.7 µM
SNB-78 CNS
  TGI: 59.6 µM
U251 CNS
  TGI: 33.5 µM
HCT-15 colon
  TGI: 39.4 µM
OVCAR-5 ovarian
  TGI: 52 µM
KM12 colon
  TGI: 33.5 µM
RXF 393 renal
  TGI: 30.4 µM
CAKI-1 renal
  TGI: 65.1 µM
M14 melanoma
  TGI: 32.8 µM
COLO 205 colon
  TGI: 41.1 µM
LXFL 529 NSCLC
  TGI: 30.9 µM
DLD-1 colon
  TGI: 59.8 µM
HCC-2998 colon
  TGI: 30.9 µM
TK-10 renal
  TGI: 84.7 µM
IGROV1 ovarian
  TGI: 66.6 µM
NCI-H522 lung
  TGI: 29.8 µM
KM20L2 colon
  TGI: 29.8 µM
NCI-H23 lung
  TGI: 36 µM
UO-31 renal
  TGI: 33.7 µM
SK-MEL-28 melanoma
  TGI: 30.3 µM
SF-295 CNS
  TGI: 64.5 µM
SK-OV-3 ovarian
  TGI: 86.3 µM
DMS 273 small cell lung
  TGI: 58.9 µM
K-562 leukemia
  TGI: 52.6 µM
UACC-62 melanoma
  TGI: 43.6 µM
XF 498 CNS
  TGI: 34.2 µM
SK-MEL-5 melanoma
  TGI: 37 µM
SNB-19 CNS
  TGI: 41.6 µM
HT29 colon
  TGI: 36.4 µM
SW-620 colon
  TGI: 29.6 µM
CCRF-CEM leukemia
  TGI: 70.2 µM
MOLT-4 leukemia
  TGI: 67.4 µM
OVCAR-4 ovarian
  TGI: 36.5 µM

## C=C1CC2CC[C@@]34CC5O[C@@H]6C(O[C@H]7CC[C@H](CC(=O)OC8C(C)C9OC%10C[C@]%11(C[C@@H]%12O[C@]%13(CC(C)[C@@H]%14O[C@H](C(O)CC(O)CO)C[C@@H]%14O%13)CC(C)[C@@H]%12O%11)OC%10CC9O[C@H]8C[C@H]8OC(CC[C@@H]1O2)C[C@@H](C)C8=C)OC7[C@@H]6O3)[C@H]5O4 (stereo partly drawn)
SR leukemia
  GI50: 0.0153 nM
NCI-H226 lung
  TGI: 0.00709 µM and 0.00725 µM and 0.0217 µM
DMS 114 small cell lung
  GI50: 0.000255 µM
  TGI: 0.00554 µM and 0.00856 µM
A549 NSCLC
  TGI: 2.55 µM and 1.65 µM
SK-MEL-2 melanoma
  TGI: 0.00931 µM and 0.00434 µM
HOP-92 NSCLC
  GI50: 0.0156 µM and 0.00603 µM
SN12C renal
  TGI: 2.55 µM and 6.41 µM
EKVX NSCLC
  TGI: 2.85 µM
SNB-78 CNS
  GI50: 0.000255 µM
  TGI: 2.55 µM
BT-549 breast
  TGI: 2.69 µM
MCF7 breast
  TGI: 2.55 µM and 21.4 µM
PC-3 prostate
  GI50: 0.000886 µM
OVCAR-5 ovarian
  TGI: 0.00764 µM
P388/ADR leukemia
  TGI: 0.00846 µM
CAKI-1 renal
  TGI: 0.464 µM and 1.54 µM
ACHN renal
  TGI: 1.28 µM
MDA-MB-231 breast
  GI50: 0.00267 µM
DLD-1 colon
  GI50: 0.000255 µM
  TGI: 2.55 µM
TK-10 renal
  TGI: 16.8 µM
MDA-N
  GI50: 0.0269 nM and 0.151 nM
  TGI: 0.000756 µM and 0.00265 µM
SF-268 CNS
  TGI: 2.55 µM and 1.47 µM
786-0 renal
  TGI: 1.22 µM
NCI-H522 lung
  TGI: 0.0007 µM and 0.000489 µM and 0.000304 µM
KM20L2 colon
  TGI: 0.00167 µM
UO-31 renal
  TGI: 2.46 µM
SK-MEL-28 melanoma
  GI50: 0.00101 µM
A498 renal
  TGI: 0.0321 µM and 0.00679 µM
HS 578T breast
  GI50: 0.000182 µM
T-47D breast
  TGI: 5.32 µM
SF-539 CNS
  TGI: 0.0042 µM and 0.00372 µM and 0.0013 µM
SNB-19 CNS
  TGI: 1.82 µM
SW-620 colon
  TGI: 2.55 µM
MDA-MB-435
  TGI: 0.000511 µM
OVCAR-4 ovarian
  TGI: 0.838 µM and 2.42 µM

## CCSCN(C)c1nc(N(C)C)nc(N(C)C)n1
OVCAR-3 ovarian
  TGI: > 100 µM
OVCAR-8 ovarian
  TGI: > 100 µM
MALME-3M melanoma
  TGI: > 100 µM
SR leukemia
  TGI: > 100 µM
DMS 114 small cell lung
  TGI: 89.7 µM
A549 NSCLC
  TGI: > 100 µM
SK-MEL-2 melanoma
  TGI: > 100 µM
HOP-92 NSCLC
  TGI: > 100 µM
SN12C renal
  TGI: > 100 µM
EKVX NSCLC
  TGI: > 100 µM
LOX IMVI melanoma
  TGI: > 100 µM
SNB-78 CNS
  TGI: > 100 µM
U251 CNS
  TGI: > 100 µM
HCT-15 colon
  TGI: > 100 µM
OVCAR-5 ovarian
  TGI: > 100 µM
HOP-62 NSCLC
  TGI: > 100 µM
KM12 colon
  TGI: > 100 µM
RXF 393 renal
  TGI: 61.3 µM
HL-60(TB) leukemia
  TGI: 81.9 µM
CAKI-1 renal
  TGI: > 100 µM
ACHN renal
  TGI: > 100 µM
M14 melanoma
  TGI: > 100 µM
COLO 205 colon
  TGI: > 100 µM
LXFL 529 NSCLC
  TGI: > 100 µM
HOP-18 NSCLC
  TGI: > 100 µM
UACC-257 melanoma
  TGI: > 100 µM
DLD-1 colon
  TGI: > 100 µM
HCC-2998 colon
  TGI: > 100 µM
TK-10 renal
  TGI: > 100 µM
IGROV1 ovarian
  TGI: > 100 µM
SF-268 CNS
  TGI: > 100 µM
786-0 renal
  TGI: > 100 µM
SNB-75 CNS
  TGI: > 100 µM
NCI-H522 lung
  TGI: 91.4 µM
NCI-H460 lung
  TGI: > 100 µM
KM20L2 colon
  TGI: > 100 µM
NCI-H23 lung
  TGI: > 100 µM
UO-31 renal
  TGI: > 100 µM
SK-MEL-28 melanoma
  TGI: > 100 µM
SF-295 CNS
  TGI: > 100 µM
A498 renal
  TGI: > 100 µM
SK-OV-3 ovarian
  TGI: > 100 µM
DMS 273 small cell lung
  TGI: > 100 µM
RPMI-8226 leukemia
  TGI: > 100 µM
K-562 leukemia
  TGI: > 100 µM
UACC-62 melanoma
  TGI: > 100 µM
SF-539 CNS
  TGI: > 100 µM
SK-MEL-5 melanoma
  TGI: > 100 µM
SNB-19 CNS
  TGI: > 100 µM
HT29 colon
  TGI: > 100 µM
M19-MEL melanoma
  TGI: > 100 µM
HCT-116 colon
  TGI: > 100 µM
SW-620 colon
  TGI: > 100 µM
CCRF-CEM leukemia
  TGI: > 100 µM
MOLT-4 leukemia
  TGI: > 100 µM
OVCAR-4 ovarian
  TGI: > 100 µM
